Source: ChEMBL document CHEMBL1201862, “PubChem BioAssay data set” (2004)
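Compound exposure: 48 hours, 5 concentrations, 96-well plates. GI50 marks 50% less growth.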 Calls of active or inactive are those of the source. Rule as the data show it: active = GI50 up to about 1.1 µM and inactive = higher.

Columns and labels:
Assay in all cases: NCI anticancer screen, dose series, 48 h
A498 = test system: A498
ACHN = test system: ACHN
CAKI-1 = test system: CAKI-1
COLO 205 = test system: COLO 205
HCT-15 = test system: HCT-15
HL-60 = test system: HL-60
Hs-578T = test system: Hs-578T
IGROV-1 = test system: IGROV-1
MDA-MB-435 = test system: MDA-MB-435
Malme-3M = test system: Malme-3M
NCI-H226 = test system: NCI-H226
NCI-H460 = test system: NCI-H460
OVCAR-8 = test system: OVCAR-8
PC-3 = test system: PC-3
RXF 393 = test system: RXF 393
SF-268 = test system: SF-268
SF-539 = test system: SF-539
SW-620 = test system: SW-620
T47D = test system: T47D
TK-10 = test system: TK-10

Structure (SMILES) | GI50 (A498) | GI50 (ACHN) | GI50 (CAKI-1) | GI50 (COLO 205) | GI50 (HCT-15) [µM] | GI50 (HL-60) | GI50 (Hs-578T) | GI50 (IGROV-1) | GI50 (MDA-MB-435) | GI50 (Malme-3M) | GI50 (NCI-H226) | GI50 (NCI-H460) | GI50 (OVCAR-8) | GI50 (PC-3) | GI50 (RXF 393) | GI50 (SF-268) | GI50 (SF-539) | GI50 (SW-620) | GI50 (T47D) | GI50 (TK-10)
O=C1Cc2c(-c3ccc(Cl)cc3)cc(-c3ccccc3)nc2-c2ccccc2N1 | 2.07 µM (inactive) | 5.09 µM (inactive) | 4.86 µM (inactive) | 2.46 µM (inactive) | 4.85 | 10.7 µM (inactive) | 7.26 µM (inactive) | 6.95 µM (inactive) | 7.76 µM (inactive) | 17 µM (inactive) | 10.8 µM (inactive) | 2.1 µM (inactive) | 2.76 µM (inactive) | 19.4 µM (inactive) | 4.81 µM (inactive) | 12.1 µM (inactive) | 8.87 µM (inactive) | 11 µM (inactive) | 2.66 µM (inactive) | 6.07 µM (inactive)
CCOC(=O)C1CCC(=O)N1C(=O)c1ccccc1 (stereo not given) | > 100 µM (inactive) | > 100 µM (inactive) | > 100 µM (inactive) | – | > 100 | > 100 µM (inactive) | > 100 µM (inactive) | > 100 µM (inactive) | > 100 µM (inactive) | > 100 µM (inactive) | > 100 µM (inactive) | > 100 µM (inactive) | > 100 µM (inactive) | > 100 µM (inactive) | > 100 µM (inactive) | > 100 µM (inactive) | > 100 µM (inactive) | > 100 µM (inactive) | > 100 µM (inactive) | > 100 µM (inactive)
Cc1ccc(C(=O)/C=C2\Nc3ccccc3SC2=O)c(C)c1 | > 100 µM (inactive) | 28.6 µM (inactive) | 37.2 µM (inactive) | 53.1 µM (inactive) | 20.8 | 26.9 µM (inactive) | 32.6 µM (inactive) | 29.8 µM (inactive) | 56.2 µM (inactive) | 84.3 µM (inactive) | 30.7 µM (inactive) | 28.6 µM (inactive) | 35.6 µM (inactive) | 47.9 µM (inactive) | < 0.01 µM (active) | 25.1 µM (inactive) | 43 µM (inactive) | – | 61.9 µM (inactive) | > 100 µM (inactive)
N#CC(C#N)=CNC(=S)c1ccncc1 | 92.9 µM (inactive) | 34.8 µM (inactive) | 46.7 µM (inactive) | 45.1 µM (inactive) | 37.4 | 48.1 µM (inactive) | 57.4 µM (inactive) | 69.5 µM (inactive) | > 100 µM (inactive) | > 100 µM (inactive) | > 100 µM (inactive) | > 100 µM (inactive) | > 100 µM (inactive) | > 100 µM (inactive) | > 100 µM (inactive) | 61.1 µM (inactive) | 23.1 µM (inactive) | 64.9 µM (inactive) | > 100 µM (inactive) | –
C/C=C/C(=O)N1C(=O)OC[C@@H]1c1ccccc1 | 26.1 µM (inactive) | 19.1 µM (inactive) | 18.3 µM (inactive) | 21.8 µM (inactive) | 23.3 | 21.9 µM (inactive) | 24.8 µM (inactive) | 19.4 µM (inactive) | 27.4 µM (inactive) | 20.4 µM (inactive) | 22.2 µM (inactive) | – | 16.7 µM (inactive) | 18.3 µM (inactive) | 18.5 µM (inactive) | 20.5 µM (inactive) | 21.9 µM (inactive) | 24.6 µM (inactive) | 16.3 µM (inactive) | 17.5 µM (inactive)
CC(=O)Nc1ccc(-c2nc3ccccc3s2)cc1Cl | 5.68 µM (inactive) | > 74 µM (inactive) | 56.5 µM (inactive) | > 100 µM (inactive) | 41.4 | > 100 µM (inactive) | 17.9 µM (inactive) | < 0.0217 µM (active) | > 100 µM (inactive) | > 100 µM (inactive) | 0.762 µM (active) | – | 66.5 µM (inactive) | > 100 µM (inactive) | 26.5 µM (inactive) | 56.8 µM (inactive) | 16.3 µM (inactive) | > 100 µM (inactive) | 0.395 µM (active) | 0.0664 µM (active)
